This is an account of results in article PMC6670186, “Novel prodrugs of decitabine with greater metabolic stability and less toxicity” (Clinical Epigenetics, 2019).

Marks after values point to notes of the source that are not given here.

Test system in one series: not listed separately
The series can be described thus: Partition coefficient (log P), shake-flask method, n-octanol/PBS. The format is physicochemical.
Conditions: not given
The method, then:
The method employed HPLC with the following conditions: ZORBAX Bonus C18 column (4.6 × 150 mm, 3 μm); eluent: A = 10 mM HCO2NH4, B = acetonitrile, A:B = 50:50 (an isocratic mode for 5 min), and A:B = 99:1–20:80 (a gradient mode for 15 min); flow rate = 1.0 mL/min; oven temperature = 40 °C; detection = 240 nm.
With `C[Si](C)(OCC1OC(n2cnc(N)nc2=O)CC1O)C1CCCC1` (stereo not drawn) [Methyl, Methyl, c-Pentyl], the “Log PO/PBS” value came to 2.16.

For `CC[Si](CC)(OCC1OC(n2cnc(N)nc2=O)CC1O)C1CCCC1` (stereo not drawn) [Ethyl, Ethyl, c-Pentyl], the “Log PO/PBS” value was 3.10.

`CCC[Si](CCC)(CCC)OC[C@H]1O[C@@H](n2cnc(N)nc2=O)C[C@@H]1O` [n-Propyl, n-Propyl, n-Propyl]: the “Log PO/PBS” value was determined as 5.20.

`CCC[Si](CC)(CC)OC[C@H]1O[C@@H](n2cnc(N)nc2=O)C[C@@H]1O` [OR-2102]: the “Log PO/PBS” value worked out at 2.54.

For `Nc1ncn([C@H]2C[C@H](O)[C@@H](CO[Si](Cc3ccccc3)(Cc3ccccc3)Cc3ccccc3)O2)c(=O)n1` [Benzyl, Benzyl, Benzyl], the “Log PO/PBS” value amounted to 4.69.

For `CC[Si](C)(CC)OC[C@H]1O[C@@H](n2cnc(N)nc2=O)C[C@@H]1O` [Ethyl, Ethyl, Methyl], the “Log PO/PBS” value is 1.49.

`CC(C)[Si](C)(C)OC[C@H]1O[C@@H](n2cnc(N)nc2=O)C[C@@H]1O` [Methyl, Methyl, i-Propyl]: the “Log PO/PBS” value is 1.48.

As for `CCCC[Si](C)(C)OC[C@H]1O[C@@H](n2cnc(N)nc2=O)C[C@@H]1O` [Methyl, Methyl, n-Butyl], the “Log PO/PBS” value is recorded as 4.56.

`C[Si](C)(Cc1ccccc1)OC[C@H]1O[C@@H](n2cnc(N)nc2=O)C[C@@H]1O` [Methyl, Methyl, Benzyl]: the “Log PO/PBS” value was 1.73.

Regarding `CC[Si](CC)(OC[C@H]1O[C@@H](n2cnc(N)nc2=O)C[C@@H]1O)C(C)C` [Ethyl, Ethyl, i-Propyl], the “Log PO/PBS” value was found to be 2.56.

As for `C[Si](C)(OC[C@H]1O[C@@H](n2cnc(N)nc2=O)C[C@@H]1O)C1CCCCC1` [OR-2009], the “Log PO/PBS” value is 2.52.

On to `CC(C)(C)[Si](C)(C)OC[C@H]1O[C@@H](n2cnc(N)nc2=O)C[C@@H]1O` [Methyl, Methyl, t-Butyl], for which the “Log PO/PBS” value came to 1.91.

Test system in a further series: not listed separately
Nature of the series: Stability in phosphate-buffered saline. In kind it is physicochemical.
Conditions: not given
The method, then:
Five microliters of DAC derivatives (1.0 mg/100 μL of DMSO) was added to 200 μL of a stirred PBS solution at 37 °C. The mixture was stirred continuously for 1 day. The remaining of the starting derivatives was assayed using the HPLC analytical conditions as described above.
Take `CCC[Si](CC)(CC)OC[C@H]1O[C@@H](n2cnc(N)nc2=O)C[C@@H]1O` [OR-2102]: the “half-life (time to release DAC)” value is reported as not below 14 h.

For `C[Si](C)(OC[C@H]1O[C@@H](n2cnc(N)nc2=O)C[C@@H]1O)C1CCCCC1` [OR-2009], the “half-life (time to release DAC)” value was not below 14 h.

Staying with this series, now noted: PBS 37 °C; 20** + x h, 20 h = t1/2 in PBS of DAC, x = OR compound.
For the compound `CCC[Si](CC)(CC)OC[C@H]1O[C@@H](n2cnc(N)nc2=O)C[C@@H]1O` [OR-2102], the “Stability t1/2 in PBS” value is recorded as 20** + 19 h.

In the case of `C[Si](C)(OC[C@H]1O[C@@H](n2cnc(N)nc2=O)C[C@@H]1O)C1CCCCC1` [OR-2009], the “Stability t1/2 in PBS” value is reported as 20** + 14 h.

Still in this series, the particulars now being: PBS solution at 37°C.
Turning to `C[Si](C)(OCC1OC(n2cnc(N)nc2=O)CC1O)C1CCCC1` (stereo not drawn) [Methyl, Methyl, c-Pentyl], the “t1/2 in PBS” value is 15 h.

Turning to `CC[Si](CC)(OCC1OC(n2cnc(N)nc2=O)CC1O)C1CCCC1` (stereo not drawn) [Ethyl, Ethyl, c-Pentyl], the “t1/2 in PBS” value is more than 24 h.

For `CCC[Si](CCC)(CCC)OC[C@H]1O[C@@H](n2cnc(N)nc2=O)C[C@@H]1O` [n-Propyl, n-Propyl, n-Propyl], the “t1/2 in PBS” value stood at 22 h.

Take `CCC[Si](CC)(CC)OC[C@H]1O[C@@H](n2cnc(N)nc2=O)C[C@@H]1O` [OR-2102]: the “t1/2 in PBS” value came out at 19 h.

On to `CC[Si](C)(C)OC[C@H]1O[C@@H](n2cnc(N)nc2=O)C[C@@H]1O` [Methyl, Methyl, Ethyl], for which the “t1/2 in PBS” value was determined as 0.9 h.

As for `C[Si](C)(C)OC[C@H]1O[C@@H](n2cnc(N)nc2=O)C[C@@H]1O` [Methyl, Methyl, Methyl], the “t1/2 in PBS” value was “Unstable”.

`Nc1ncn([C@H]2C[C@H](O)[C@@H](CO[Si](Cc3ccccc3)(Cc3ccccc3)Cc3ccccc3)O2)c(=O)n1` [Benzyl, Benzyl, Benzyl]: the “t1/2 in PBS” value was more than 24 h.

`CCCCCCCC[Si](C)(C)OCC1OC(n2cnc(N)nc2=O)CC1O` (stereo not drawn) [Methyl, Methyl, n-Octyl]: the “t1/2 in PBS” value was 1.5 h.

In the case of `CC[Si](C)(CC)OC[C@H]1O[C@@H](n2cnc(N)nc2=O)C[C@@H]1O` [Ethyl, Ethyl, Methyl], the “t1/2 in PBS” value is 4 h.

With `CC(C)[Si](C)(C)OC[C@H]1O[C@@H](n2cnc(N)nc2=O)C[C@@H]1O` [Methyl, Methyl, i-Propyl], the “t1/2 in PBS” value came to 12 h.

For `CCCC[Si](C)(C)OC[C@H]1O[C@@H](n2cnc(N)nc2=O)C[C@@H]1O` [Methyl, Methyl, n-Butyl], the “t1/2 in PBS” value turned out to be 1.3 h.

`C[Si](C)(Cc1ccccc1)OC[C@H]1O[C@@H](n2cnc(N)nc2=O)C[C@@H]1O` [Methyl, Methyl, Benzyl]: the “t1/2 in PBS” value came out at 2.5 h.

Take `CC[Si](CC)(OC[C@H]1O[C@@H](n2cnc(N)nc2=O)C[C@@H]1O)C(C)C` [Ethyl, Ethyl, i-Propyl]: the “t1/2 in PBS” value is more than 24 h.

Take `C[Si](C)(OC[C@H]1O[C@@H](n2cnc(N)nc2=O)C[C@@H]1O)C1CCCCC1` [OR-2009]: the “t1/2 in PBS” value stood at 14 h.

With `CC(C)(C)[Si](C)(C)OC[C@H]1O[C@@H](n2cnc(N)nc2=O)C[C@@H]1O` [Methyl, Methyl, t-Butyl], the “t1/2 in PBS” value was more than 24 h.

Another series deals with T1, human recombinant cytidine deaminase (Homo sapiens, UniProt P32320).
T1 construct: His; purchased AT Gen Co. Ltd; Seoul, Korea
T1 sequence (P32320 whole entry): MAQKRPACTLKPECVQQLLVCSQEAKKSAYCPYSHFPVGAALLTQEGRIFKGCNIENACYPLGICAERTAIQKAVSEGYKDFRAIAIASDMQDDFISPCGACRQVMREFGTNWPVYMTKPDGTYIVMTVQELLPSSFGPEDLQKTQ
The series can be described thus: Stability in the presence of cytidine deaminase. In kind it is in vitro ADME.
Conditions: not given
From the text: The remaining of the starting derivatives were continuously assayed using HPLC analytical conditions as described above.
`CCC[Si](CC)(CC)OC[C@H]1O[C@@H](n2cnc(N)nc2=O)C[C@@H]1O` [OR-2102]: the “enzymatic stability in the presence of CDA” value (from here on “enzymatic stability … of CDA”) is recorded as “gradually degraded by CDA”.

Consider `CC[Si](C)(CC)OC[C@H]1O[C@@H](n2cnc(N)nc2=O)C[C@@H]1O` [Ethyl, Ethyl, Methyl], for which the “enzymatic stability … of CDA” value is listed as “stable in the presence of CDA”.

For `CC(C)[Si](C)(C)OC[C@H]1O[C@@H](n2cnc(N)nc2=O)C[C@@H]1O` [Methyl, Methyl, i-Propyl], the “enzymatic stability … of CDA” value is “stable in the presence of CDA”.

As to `C[Si](C)(Cc1ccccc1)OC[C@H]1O[C@@H](n2cnc(N)nc2=O)C[C@@H]1O` [Methyl, Methyl, Benzyl], the “enzymatic stability … of CDA” value is recorded as “gradually degraded by CDA”.

Staying with this series, now noted: cytidine deaminase, after 2 h.
In the case of `CCC[Si](CC)(CC)OC[C@H]1O[C@@H](n2cnc(N)nc2=O)C[C@@H]1O` [OR-2102], the “Enzymatic stability, retained” value was “Retain 46% after 2 h”.

For the compound `C[Si](C)(OC[C@H]1O[C@@H](n2cnc(N)nc2=O)C[C@@H]1O)C1CCCCC1` [OR-2009], the “Enzymatic stability, retained” value is listed as “Retain 75% after 2 h”.

Test system in a further series: not listed separately
Nature of the series: Pharmacokinetics in mice, intraperitoneal. In kind it is in vivo.
Conditions: not given
The method, then: Six-week-old female ICR mice were intraperitoneally injected with 0.20 mg/kg of DAC, 0.29 mg/kg of OR-2003, 0.32 mg/kg of OR-2009, 0.30 mg/kg of OR-2100, and 0.31 mg/kg of OR-2102. The doses were decided so that equivalent amounts of molar concentration would be administered. The blood plasma was collected before and at 5, 15, 30, 45, 60, 90, and 120 min after the treatment. All experimental procedures were approved by the Committee of National Cancer Center.
Take `C[Si](C)(OC[C@H]1O[C@@H](n2cnc(N)nc2=O)C[C@@H]1O)C1CCCCC1` [OR-2009]: the “total AUC of OR compound and metabolite DAC compared with DAC” value is given as “larger AUCs than that of DAC”.

The series is the same for the next values; noted with them: plasma, DAC (metabolite for OR compounds), equimolar dose.
For the compound `CCC[Si](CC)(CC)OC[C@H]1O[C@@H](n2cnc(N)nc2=O)C[C@@H]1O` [OR-2102], the “AUC 0 → lim, DAC” value was found to be 0.285 µM·h.

Consider `C[Si](C)(OC[C@H]1O[C@@H](n2cnc(N)nc2=O)C[C@@H]1O)C1CCCCC1` [OR-2009], for which the “AUC 0 → lim, DAC” value was determined as 0.238 µM·h.

Staying with this series, now noted: plasma, OR compound + metabolite DAC.
Consider `CCC[Si](CC)(CC)OC[C@H]1O[C@@H](n2cnc(N)nc2=O)C[C@@H]1O` [OR-2102], for which the “AUC 0 → lim, Total” value stood at 0.366 µM·h.

As to `C[Si](C)(OC[C@H]1O[C@@H](n2cnc(N)nc2=O)C[C@@H]1O)C1CCCCC1` [OR-2009], the “AUC 0 → lim, Total” value is 0.552 µM·h.

Still in this series, the particulars now being: plasma, dose equimolar to 0.20 mg/kg DAC.
As to `CCC[Si](CC)(CC)OC[C@H]1O[C@@H](n2cnc(N)nc2=O)C[C@@H]1O` [OR-2102], the “AUC 0 → lim, OR compound” value came to 0.081 µM·h.

Turning to `C[Si](C)(OC[C@H]1O[C@@H](n2cnc(N)nc2=O)C[C@@H]1O)C1CCCCC1` [OR-2009], the “AUC 0 → lim, OR compound” value was found to be 0.314 µM·h.

The test system of the next series is exogenous UCHL1 promoter and OSR2 promoter CpG island. Nature of the series: Quantitative methylation-specific PCR of marker genes. Conditions: qMSP. In kind it is cell-based, Human. The method, then:
One microgram of EcoRV-digested genomic DNA was treated with sodium bisulfite as described previously. Bisulfite-treated DNA was resuspended in 40 μL of TE-buffer (10 mM Tris, pH 8.0; 1 mM EDTA, pH 8.0), and 1 μL was used for quantitative methylation-specific PCR (qMSP) using primers specific to methylated and unmethylated target loci, including MetLuc-UCHL1 promoter, OSR2 promoter, and UCHL1 promoter (Additional file 1: Table S1). As a fully unmethylated DNA control, genomic DNA from peripheral blood cells of a healthy person was amplified twice using a GenomiPhi DNA amplification kit (GE Healthcare Life Sciences; Little Chalfont, UK). As a fully methylated DNA control, the fully unmethylated DNA was methylated by SssI methylase (New England Biolabs; Beverly, MA).
On to `Nc1ncn([C@H]2C[C@H](OP(=O)(O)OC[C@H]3O[C@@H](n4cnc5c(=O)[nH]c(N)nc54)C[C@@H]3O)[C@@H](CO)O2)c(=O)n1` [guadecitabine, reference compound], for which the “dose with strongest effect of DNA demethylation” value turned out to be 1.0 µM.

Staying with this series, now noted: qMSP, 0.0 to 10.0 μM.
Regarding `Nc1ncn([C@H]2C[C@H](OP(=O)(O)OC[C@H]3O[C@@H](n4cnc5c(=O)[nH]c(N)nc54)C[C@@H]3O)[C@@H](CO)O2)c(=O)n1` [guadecitabine, reference compound], the “DNA demethylation of exogenous UCHL1 promoter and OSR2 promoter CpG island” value was “weaker demethylation effect than OR-2003 and OR-2100”.

Test system in the next series: not listed separately
Nature of the series: Chemical stability in a protic solvent.
Conditions: not given
In kind it is physicochemical.
In the case of `C[Si](C)(C)OC[C@H]1O[C@@H](n2cnc(N)nc2=O)C[C@@H]1O` [Methyl, Methyl, Methyl], the “stability in a protic solvent” value is recorded as “unstable”.

Consider `CC(C)(C)[Si](C)(C)OC[C@H]1O[C@@H](n2cnc(N)nc2=O)C[C@@H]1O` [Methyl, Methyl, t-Butyl], for which the “stability in a protic solvent” value is “stable”.

A further series relates to Cytidine deaminase (CDA).
Assay: not given
As to conditions: substrate of CDA; ref J. Clinical Investigation, 1974, 53(3), 922-931; cited from earlier work. On the set-up: method as in J. Clinical Investigation, 1974, 53(3), 922-931.
Turning to `Nc1ncn([C@@H]2O[C@H](CO)[C@@H](O)[C@H]2O)c(=O)n1` [AZA, 5-azacytidine], the Michaelis constant is recorded as 430 µM.

With `Nc1nc(=O)n([C@@H]2O[C@H](CO)[C@@H](O)[C@H]2O)cc1F` [5-fluorocytidine], the Michaelis constant is 30 µM.

For the compound `Nc1ccn([C@H]2C[C@H](O)[C@@H](CO)O2)c(=O)n1` [2'-deoxycytidine], the Michaelis constant is reported as 26 µM.
